# Results from patent US20250221988A1 (Cullgen (Shanghai), Inc., priority 2022, published 2025).
# Where two headings read alike, the source gives them in different places.
# What was measured:
# [1] = tested on: MOLM-13 cells; assay: Cell viability assay (CellTiter-Glo) in MOLM-13 cells; assay type: cell-based
# [2] = tested on: MV4;11 cells; assay: Cell viability assay (CellTiter-Glo) in MV4;11 cells; assay type: cell-based; settings: read-out: MV4
# Procedure, shortened: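 After three days' exposure to 3-fold serial compound dilutions (8 or 12 points), viability of cells seeded at 5000/well is read by CellTiter-Glo. Runs were done alone or combined with gilteritinib at 10 nM (MV4;11) or 20 nM (MOLM-13); IC50 from nonlinear regression.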
# [3] = Homo sapiens, 72 h, MOLM-13 cells, compound alone, three days, read-out: MOLM-13 IC50
# [4] = Homo sapiens, MV4-11, 72 h, MV4;11 cells, compound alone, three days, 11 IC50
# [5] = MOLM-13 cells, with gilteritinib, three days, read-out: MOLM-13 IC50 (nM) + 10 nM Gil
# [6] = MV4;11 cells, with 10 nM gilteritinib, three days, 11 IC50 (nM) + 10 nM Gil
"IC50 [1, 3]","IC50 [2, 4]","IC50 [1, 5]","IC50 [2, 6]",Compound,"IC50 ([1]; Homo sapiens, MOLM-13, 72 h, read-out: MOLM-13 IC50 (nM))","sensitization of AML cells to GSPT1 degraders by FLT3 inhibition ([1]; MOLM-13 cells, with or without 20 nM gilteritinib, 3 days)","IC50 ([1]; read-out: MOLM-13 IC50 (nM) + 10 nM Gil, MOLM-13 cells, with gilteritinib, three days)","IC50 ([2]; Homo sapiens, MV4-11, 72 h, 11 IC50 (nM))","IC50 ([2]; 11 IC50 (nM) + 10 nM Gil, MV4;11 cells, with 10 nM gilteritinib, three days)"
> 1000 nM,> 1000 nM,–,–,"Cn1nccc1-c1cn([C@H]2C[C@H](CNc3ccc4c(c3)C(=O)N(C3CCC(=O)NC3=O)C4=O)C2)nc1C1CC1 (stereo partly drawn) [GS-690, 5-(((Trans-3-(3′-cyclopropyl-2-methyl-1′H,2H-[3,4′-bipyrazol]-1′-yl)cyclobutyl)methyl)amino)-2-(2,6-dioxopiperidin-3-yl)isoindoline-1,3-dione]",–,–,–,–,–
> 1000 nM,> 1000 nM,–,–,"Cn1cncc1-c1cn([C@H]2C[C@H](CNc3ccc4c(c3)C(=O)N(C3CCC(=O)NC3=O)C4=O)C2)nc1C1CC1 (stereo partly drawn) [GS-691, 5-(((Trans-3-(3-cyclopropyl-4-(1-methyl-1H-imidazol-5-yl)-1H-pyrazol-1-yl)cyclobutyl)methyl)amino)-2-(2,6-dioxopiperidin-3-yl)isoindoline-1,3-dione]",–,–,–,–,–
> 1000 nM,> 1000 nM,100 to 1000 nM,100 to 1000 nM,"Cc1cccc2cnn([C@H]3C[C@H](CNc4ccc5c(c4)C(=O)N(C4CCC(=O)NC4=O)C5=O)C3)c12 (stereo partly drawn) [GS-693, 2-(2,6-Dioxopiperidin-3-yl)-5-(((trans-3-(7-methyl-1H-indazol-1-yl)cyclobutyl)methyl)amino)isoindoline-1,3-dione]",–,–,–,–,–
> 1000 nM,> 1000 nM,100 to 1000 nM,100 to 1000 nM,"Cc1cccc2cn([C@H]3C[C@H](CNc4ccc5c(c4)C(=O)N(C4CCC(=O)NC4=O)C5=O)C3)nc12 (stereo partly drawn) [GS-694, 2-(2,6-Dioxopiperidin-3-yl)-5-(((trans-3-(7-methyl-2H-indazol-2-yl)cyclobutyl)methyl)amino)isoindoline-1,3-dione]",–,–,–,–,–
10 to 100 nM,10 to 100 nM,< 10 nM,< 10 nM,"Cn1ccc2nc(-c3cn([C@H]4C[C@H](CNc5ccc6c(c5)C(=O)N(C5CCC(=O)NC5=O)C6=O)C4)nc3C3CC3)ccc21 (stereo partly drawn) [GS-695, 5-(((Trans-3-(3-cyclopropyl-4-(1-methyl-1H-pyrrolo[3,2-b]pyridin-5-yl)-1H-pyrazol-1-yl)cyclobutyl)methyl)amino)-2-(2,6-dioxopiperidin-3-yl)isoindoline-1,3-dione]",–,–,–,–,–
> 1000 nM,100 to 1000 nM,10 to 100 nM,10 to 100 nM,"CC(C)n1ccc2nc(-c3cn([C@H]4C[C@H](CNc5ccc6c(c5)C(=O)N(C5CCC(=O)NC5=O)C6=O)C4)nc3C3CC3)ccc21 (stereo partly drawn) [GS-696, 5-(((Trans-3-(3-cyclopropyl-4-(1-isopropyl-1H-pyrrolo[3,2-b]pyridin-5-yl)-1H-pyrazol-1-yl)cyclobutyl)methyl)amino)-2-(2,6-dioxopiperidin-3-yl)isoindoline-1,3-dione]",–,–,–,–,–
100 to 1000 nM,10 to 100 nM,10 to 100 nM,10 to 100 nM,"Cn1ncc2nc(-c3cn([C@H]4C[C@H](CNc5ccc6c(c5)C(=O)N(C5CCC(=O)NC5=O)C6=O)C4)nc3C3CC3)ccc21 (stereo partly drawn) [GS-699, 5-(((Trans-3-(3-cyclopropyl-4-(1-methyl-1H-pyrazolo[4,3-b]pyridin-5-yl)-1H-pyrazol-1-yl)cyclobutyl)methyl)amino)-2-(2,6-dioxopiperidin-3-yl)isoindoline-1,3-dione]",–,–,–,–,–
100 to 1000 nM,100 to 1000 nM,10 to 100 nM,10 to 100 nM,"CC(C)n1ncc2nc(-c3cn([C@H]4C[C@H](CNc5ccc6c(c5)C(=O)N(C5CCC(=O)NC5=O)C6=O)C4)nc3C3CC3)ccc21 (stereo partly drawn) [GS-700, 5-(((Trans-3-(3-cyclopropyl-4-(1-isopropyl-1H-pyrazolo[4,3-b]pyridin-5-yl)-1H-pyrazol-1-yl)cyclobutyl)methyl)amino)-2-(2,6-dioxopiperidin-3-yl)isoindoline-1,3-dione]",–,–,–,–,–
100 to 1000 nM,10 to 100 nM,10 to 100 nM,10 to 100 nM,"O=C1CCC(N2C(=O)c3ccc(NC[C@H]4C[C@H](n5cc(C6CCC(O)CC6)c(C6CC6)n5)C4)cc3C2=O)C(=O)N1 (stereo partly drawn) [GS-701, 5-(((Trans-3-(3-cyclopropyl-4-(4-hydroxycyclohexyl)-1H-pyrazol-1-yl)cyclobutyl)methyl)amino)-2-(2,6-dioxopiperidin-3-yl)isoindoline-1,3-dione]",–,–,–,–,–
< 10 nM,< 10 nM,< 10 nM,< 10 nM,"O=C1CCC(N2C(=O)c3ccc(NCC4CC(n5cc(-c6cnc7c(NCC(O)CO)cccc7n6)c(C6CC6)n5)C4)cc3C2=O)C(=O)N1 (stereo not drawn) [GS-702, 5-(((trans-3-(3-cyclopropyl-4-(5-((2,3-dihydroxypropyl)amino)quinoxalin-2-yl)-1-pyrazol-1-yl)cyclobutyl)methyl)amino)-2-(2,6-dioxopiperidin-3-yl)isoindoline-1,3-dione]",–,–,–,–,–
100 to 1000 nM,10 to 100 nM,10 to 100 nM,10 to 100 nM,"O=C1CCC(N2C(=O)c3ccc(NC[C@H]4C[C@H](n5cc(C6CCCC(O)C6)c(C6CC6)n5)C4)cc3C2=O)C(=O)N1 (stereo partly drawn) [GS-703, 5-(((Trans-3-(3-cyclopropyl-4-(3-hydroxycyclohexyl)-1H-pyrazol-1-yl)cyclobutyl)methyl)amino)-2-(2,6-dioxopiperidin-3-yl)isoindoline-1,3-dione]",–,–,–,–,–
100 to 1000 nM,> 1000 nM,100 to 1000 nM,100 to 1000 nM,"O=C1CCC(N2C(=O)c3ccc(NC[C@H]4C[C@H](n5cc(-c6ccc7c(n6)CCC7O)c(C6CC6)n5)C4)cc3C2=O)C(=O)N1 (stereo partly drawn) [GS-705, 5-(((Trans-3-(3-cyclopropyl-4-(5-hydroxy-6,7-dihydro-5H-cyclopenta[b]pyridin-2-yl)-1H-pyrazol-1-yl)cyclobutyl)methyl)amino)-2-(2,6-dioxopiperidin-3-yl)isoindoline-1,3-dione]",–,–,–,–,–
10 to 100 nM,10 to 100 nM,< 10 nM,< 10 nM,"NC1CCN(c2ccc3ncc(-c4cn([C@H]5C[C@H](CNc6ccc7c(c6)C(=O)N(C6CCC(=O)NC6=O)C7=O)C5)nc4C4CC4)nc3c2)C1 (stereo partly drawn) [GS-706, 5-(((Trans-3-(4-(7-(3-aminopyrrolidin-1-yl)quinoxalin-2-yl)-3-cyclopropyl-1H-pyrazol-1-yl)cyclobutyl)methyl)amino)-2-(2,6-dioxopiperidin-3-yl)isoindoline-1,3-dione]",–,–,–,–,–
–,–,–,–,"CN(C)c1nc(-c2cn([C@H]3C[C@H](CNc4ccc5c(c4)C(=O)N(C4CCC(=O)NC4=O)C5=O)C3)nc2C2CC2)ccc1F (stereo partly drawn) [GS-707, 5-(((Trans-3-(3-cyclopropyl-4-(6-(dimethylamino)-5-fluoropyridin-2-yl)-1H-pyrazol-1-yl)cyclobutyl)methyl)amino)-2-(2,6-dioxopiperidin-3-yl)isoindoline-1,3-dione]",10 to 100 nM,FLT3 inhibition sensitizes AML cells,10 to 100 nM,10 to 100 nM,< 10 nM
> 1000 nM,> 1000 nM,100 to 1000 nM,–,"O=C1CCC(N2C(=O)c3ccc(NC[C@H]4C[C@H](n5cc(NC6CCOCC6)c(C6CC6)n5)C4)cc3C2=O)C(=O)N1 (stereo partly drawn) [GS-708, 5-(((Trans-3-(3-cyclopropyl-4-((tetrahydro-2H-pyran-4-yl)amino)-1H-pyrazol-1-yl)cyclobutyl)methyl)amino)-2-(2,6-dioxopiperidin-3-yl)isoindoline-1,3-dione]",–,–,–,–,–
> 1000 nM,> 1000 nM,–,–,"O=C1CCC(N2C(=O)c3ccc(NC[C@H]4C[C@H](n5cc(NC6CCC(O)CC6)c(C6CC6)n5)C4)cc3C2=O)C(=O)N1 (stereo partly drawn) [GS-709, 5-(((Trans-3-(3-cyclopropyl-4-((4-hydroxycyclohexyl)amino)-1H-pyrazol-1-yl)cyclobutyl)methyl)amino)-2-(2,6-dioxopiperidin-3-yl)isoindoline-1,3-dione]",–,–,–,–,–
10 to 100 nM,10 to 100 nM,< 10 nM,< 10 nM,"O=C1CCC(N2C(=O)c3ccc(NC[C@H]4C[C@H](n5cc(-c6cnc7c(NC(CO)CO)cccc7n6)c(C6CC6)n5)C4)cc3C2=O)C(=O)N1 (stereo partly drawn) [GS-710, 5-(((Trans-3-(3-cyclopropyl-4-(5-((1,3-dihydroxypropan-2-yl)amino)quinoxalin-2-yl)-1H-pyrazol-1-yl)cyclobutyl)methyl)amino)-2-(2,6-dioxopiperidin-3-yl)isoindoline-1,3-dione]",–,–,–,–,–
> 1000 nM,> 1000 nM,–,–,"Cc1nc(-c2cn(C[C@H]3C[C@H](Nc4ccc5c(c4)C(=O)N(C4CCC(=O)NC4=O)C5=O)C3)nc2C2CC2)ccc1F (stereo partly drawn) [GS-711, 5-((Trans-3-((3-cyclopropyl-4-(5-fluoro-6-methylpyridin-2-yl)-1H-pyrazol-1-yl)methyl)cyclobutyl)amino)-2-(2,6-dioxopiperidin-3-yl)isoindoline-1,3-dione]",–,–,–,–,–
< 10 nM,< 10 nM,< 10 nM,< 10 nM,"O=C1CCC(N2C(=O)c3ccc(NC[C@H]4C[C@H](n5cc(-c6cnc7cc(N8CC(O)C8)ccc7n6)c(C6CC6)n5)C4)cc3C2=O)C(=O)N1 (stereo partly drawn) [GS-712, 5-(((Trans-3-(3-cyclopropyl-4-(6-(3-hydroxyazetidin-1-yl)quinoxalin-2-yl)-1H-pyrazol-1-yl)cyclobutyl)methyl)amino)-2-(2,6-dioxopiperidin-3-yl)isoindoline-1,3-dione]",–,–,–,–,–
100 to 1000 nM,10 to 100 nM,10 to 100 nM,10 to 100 nM,"Cc1cccc(-c2nn([C@H]3C[C@H](CNc4ccc5c(c4)C(=O)N(C4CCC(=O)NC4=O)C5=O)C3)cc2C2CC2)n1 (stereo partly drawn) [GS-713, 5-(((Trans-3-(4-cyclopropyl-3-(6-methylpyridin-2-yl)-1H-pyrazol-1-yl)cyclobutyl)methyl)amino)-2-(2,6-dioxopiperidin-3-yl)isoindoline-1,3-dione]",–,–,–,–,–
